Structures can show the parent of a compound that is named as a salt. Where two headings read alike, the source gives them in different places.
Molecular target: hNav1.7 (Homo sapiens (Human), UniProt Q15858)
Assay: Tritiated sulfonamide competitive binding to membranes from cells expressing hNav1.7 and the β1 subunit;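 also: Filter-bound radioactivity counted by liquid scintillation, nonspecific binding defined with excess unlabelled ligand, IC50 fitted to percent inhibition of specific binding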
[1] = read-out: Ligand Binding Assay, 100 pM [3H]compound, membranes with hNav1.7 and β1 subunit, 18 h, room temperature

hNav1.7, sequence (Q15858 other isoform, or with tags, fused parts or gaps): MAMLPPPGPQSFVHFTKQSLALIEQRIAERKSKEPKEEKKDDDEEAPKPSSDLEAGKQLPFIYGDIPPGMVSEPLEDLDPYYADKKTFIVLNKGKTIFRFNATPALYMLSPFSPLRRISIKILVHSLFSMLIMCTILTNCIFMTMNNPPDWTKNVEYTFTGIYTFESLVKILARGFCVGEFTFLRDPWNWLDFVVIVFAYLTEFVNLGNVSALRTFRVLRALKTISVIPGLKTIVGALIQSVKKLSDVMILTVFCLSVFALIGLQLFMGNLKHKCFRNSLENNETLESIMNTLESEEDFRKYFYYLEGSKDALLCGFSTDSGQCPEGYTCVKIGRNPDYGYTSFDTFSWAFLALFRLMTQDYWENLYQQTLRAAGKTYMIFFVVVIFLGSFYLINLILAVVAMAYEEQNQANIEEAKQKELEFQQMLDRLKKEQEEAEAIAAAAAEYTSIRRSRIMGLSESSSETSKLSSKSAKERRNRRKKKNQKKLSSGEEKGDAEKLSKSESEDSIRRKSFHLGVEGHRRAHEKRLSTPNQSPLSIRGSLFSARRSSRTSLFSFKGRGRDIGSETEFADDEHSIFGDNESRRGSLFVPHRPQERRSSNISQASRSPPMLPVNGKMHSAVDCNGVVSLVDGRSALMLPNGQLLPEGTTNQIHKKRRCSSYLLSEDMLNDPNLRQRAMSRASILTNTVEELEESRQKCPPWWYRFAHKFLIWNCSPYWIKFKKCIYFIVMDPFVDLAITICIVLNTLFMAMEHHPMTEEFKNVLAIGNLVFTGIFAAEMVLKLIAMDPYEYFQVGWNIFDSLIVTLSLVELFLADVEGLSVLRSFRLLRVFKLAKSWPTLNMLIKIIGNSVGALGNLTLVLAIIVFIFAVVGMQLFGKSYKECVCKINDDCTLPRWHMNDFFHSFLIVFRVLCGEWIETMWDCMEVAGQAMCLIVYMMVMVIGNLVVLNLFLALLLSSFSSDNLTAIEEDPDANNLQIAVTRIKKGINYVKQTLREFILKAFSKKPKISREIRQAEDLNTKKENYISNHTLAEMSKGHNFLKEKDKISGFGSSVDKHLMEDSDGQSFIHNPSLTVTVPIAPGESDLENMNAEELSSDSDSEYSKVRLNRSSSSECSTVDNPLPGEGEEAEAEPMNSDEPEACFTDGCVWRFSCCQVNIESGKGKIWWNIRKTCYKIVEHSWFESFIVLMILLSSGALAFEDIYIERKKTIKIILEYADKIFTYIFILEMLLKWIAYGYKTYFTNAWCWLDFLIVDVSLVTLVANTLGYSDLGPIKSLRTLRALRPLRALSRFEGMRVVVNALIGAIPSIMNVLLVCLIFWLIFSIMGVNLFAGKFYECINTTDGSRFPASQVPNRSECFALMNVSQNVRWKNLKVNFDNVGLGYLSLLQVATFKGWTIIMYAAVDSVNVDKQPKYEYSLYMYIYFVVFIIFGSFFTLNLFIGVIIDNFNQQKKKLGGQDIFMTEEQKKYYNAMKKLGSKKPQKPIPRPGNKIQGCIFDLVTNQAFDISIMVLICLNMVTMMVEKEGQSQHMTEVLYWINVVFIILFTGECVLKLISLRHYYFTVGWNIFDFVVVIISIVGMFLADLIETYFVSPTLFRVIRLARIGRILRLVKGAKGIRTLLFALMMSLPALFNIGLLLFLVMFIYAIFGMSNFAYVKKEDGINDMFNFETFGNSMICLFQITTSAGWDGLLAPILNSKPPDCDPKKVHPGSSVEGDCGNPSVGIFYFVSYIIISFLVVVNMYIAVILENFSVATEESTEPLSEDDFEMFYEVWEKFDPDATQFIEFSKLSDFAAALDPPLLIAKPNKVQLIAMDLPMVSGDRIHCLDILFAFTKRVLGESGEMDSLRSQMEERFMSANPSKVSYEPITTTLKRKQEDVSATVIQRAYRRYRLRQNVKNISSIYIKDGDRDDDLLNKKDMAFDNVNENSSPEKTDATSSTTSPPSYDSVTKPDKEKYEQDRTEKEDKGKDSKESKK
hNav1.7, sequence (Q07699 19-218 partner): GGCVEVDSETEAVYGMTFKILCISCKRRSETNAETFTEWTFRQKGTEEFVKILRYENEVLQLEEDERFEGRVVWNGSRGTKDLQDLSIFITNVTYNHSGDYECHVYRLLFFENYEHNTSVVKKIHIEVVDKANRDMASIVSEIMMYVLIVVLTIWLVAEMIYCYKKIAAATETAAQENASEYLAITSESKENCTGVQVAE

SMILES | IC50 [1] [nM] | also measured
C[C@@H](c1cc(Cl)cc(Cl)c1)N1CC(COc2cc(F)c(C(=O)NS(C)(=O)=O)cc2C2CC2)C1 [Example 120, (S)-5-Cyclopropyl-4-((1-(1-(3,5-dichlorophenyl)ethyl)azetidin-3-yl)methoxy)-2-fluoro-N-(methylsulfonyl)benzamide] | 20.6 | 
CS(=O)(=O)NC(=O)c1cc(C2CC2)c(O[C@@H]2CCCN(Cc3ccc(F)cc3)C2)cc1F [Example 20, (R)-5-cyclopropyl-2-fluoro-4-((1-(4-fluorobenzyl)piperidin-3-yl)oxy)-N-(methlysulfonyl)benzamide] |  | IC50: 30.9 nM
C[C@@H](c1ccc(Cl)cc1Cl)N1CCC(C)(COc2cc(F)c(C(=O)NS(C)(=O)=O)cc2C2CC2)CC1 [Example 280, (S)-5-cyclopropyl-4-((1-(1-(2,4-dichlorophenyl)ethyl)-4-methylpiperidin-4-yl)methoxy)-2-fluoro-N-(methylsulfonyl)benzamide] | 8.1 | 
O=C(NS(=O)(=O)C1CC1)c1cc(C2CC2)c(O[C@@H]2CCCN(c3cc(Cl)cc(Cl)c3)C2)cc1F [Example 42, (R)-5-cyclopropyl-N-(cyclopropylsulfonyl)-4-((1-(3,5-dichlorophenyl)piperidin-3-yl)oxy)-2-fluorobenzamide] |  | IC50: 2.1 nM
CS(=O)(=O)NC(=O)c1cc(C2CC2)c(CN2CCC(Oc3cc(C(F)(F)F)c(Cl)cn3)CC2)cc1F [Example 521, 4-((4-((5-chloro-4-(trifluoromethyl)pyridin-2-yl)oxy)piperidin-1-yl)methyl)-5-cyclopropyl-2-fluoro-N-(methylsulfonyl)benzamide, trifluoroacetic acid salt] |  | IC50: 7.9 nM
C[C@H](c1ccc(Cl)cc1Cl)N1CCC(C)(COc2cc(F)c(C(=O)NS(C)(=O)=O)cc2C2CC2)CC1 [Example 281, (R)-5-cyclopropyl-4-((1-(1-(2,4-dichlorophenyl)ethyl)-4-methylpiperidin-4-yl)methoxy)-2-fluoro-N-(methylsulfonyl)benzamide] | 4.7 | 
COC[C@H](c1cc(Cl)cc(Cl)c1)N1CCC[C@@H](Oc2cc(F)c(C(=O)NS(C)(=O)=O)cc2C2CC2)C1 [Example 448, 5-cyclopropyl-4-(((R)-1-((S)-1-(3,5-dichlorophenyl)-2-methoxyethyl)piperidin-3-yl)oxy)-2-4-N-(methylsulfonyl)benzamide, trifluoroacetic acid salt] | 10.5 | 
O=C(NS(=O)(=O)C1CC1)c1cc(C2CC2)c(O[C@@H]2CCCN(Cc3ccc(Cl)c(Cl)c3)C2)cc1F [Example 18, (R)-5-cyclopropyl-N-(cyclopropylsulfonyl)-4-((1-(3,4-dichlorobenzyl)-piperidin-3-yl)oxy)-2-fluorobenzamide] |  | IC50: 2.6 nM
CS(=O)(=O)NC(=O)c1cc(Cl)c(OCC2CN(C(c3ccccc3)c3ccccc3)C2)cc1F [Example 59, 4-((1-benzhydrylazetidin-3-yl)methoxy)-5-chloro-2-fluoro-N-(methylsulfonyl)benzamide] | 76 | 
CS(=O)(=O)NC(=O)c1cc(C2CC2)c(CN2CC(Oc3cc(Cl)cc(Cl)c3)C2)cc1F [Example 544, 5-cyclopropyl-4-((3-(3,5-dichlorophenoxy)azetidin-1-yl)methyl)-2-fluoro-N-(methylsulfonyl)benzamide, trifluoroacetic acid salt] |  | IC50: 15.3 nM
C[C@H](c1cc(Cl)cc(Cl)c1)N1CCC(COc2cc(F)c(C(=O)NS(C)(=O)=O)cc2Cl)CC1 [Example 404, (R)-5-chloro-4-((1-(1-(3,5-dichlorophenyl)ethyl)piperidin-4-yl)methoxy)-2-fluoro-N-(methylsulfonyl)benzamide, trifluoroacetic acid] | 20.1 | 
CS(=O)(=O)NC(=O)c1cc(C2CC2)c(CN2CCC(Oc3ccc(Cl)c(C(F)(F)F)c3)CC2)cc1F [Example 519, 4-((4-(4-chloro-3-(trifluoromethyl)phenoxy)piperidin-1-yl)methyl)-5-cyclopropyl-2-fluoro-N-(methylsulfonyl)benzamide, trifluoroacetic acid salt] |  | IC50: 8.1 nM
CC1(COc2cc(F)c(C(=O)NS(C)(=O)=O)cc2C2CC2)CCN(Cc2cc(Cl)cc(C(F)(F)F)c2)CC1 [Example 140, 4-((1-(3-chloro-5-(trifluoromethyl)benzyl)-4-methylpiperidin-4-yl)methoxy)-5-cyclopropyl-2-fluoro-N-(methylsulfonyl)benzamide] | 3.5 | 
C[C@@H](c1ccc(OC(F)(F)F)cc1)N1CCC(C)(COc2cc(F)c(C(=O)NS(C)(=O)=O)cc2C2CC2)CC1 (single isomer, unassigned) [Example 248] | 10 | 
CCS(=O)(=O)NC(=O)c1cc(C2CC2)c(OCC2CCN([C@@](C)(COC)c3cc(Cl)cc(Cl)c3)CC2)cc1F (single isomer, unassigned) [Example 204] | 2.7 | 
O=C(NS(=O)(=O)C1CC1)c1cc(C2CC2)c(CN2CCO[C@@H](Cc3ccc(Cl)c(Cl)c3)C2)cc1F [Example 462] | 36.3 | 
C[C@@H](c1cc(Cl)cc(C(F)(F)F)c1)N1CCC(C)(COc2cc(F)c(C(=O)NS(C)(=O)=O)cc2C2CC2)CC1 (single isomer, unassigned) [Example 279] | 4 | 
CS(=O)(=O)NC(=O)c1cc(C2CC2)c(CN2[C@@H]3CC[C@H]2C[C@@H](Oc2ncc(C(F)(F)F)cc2Cl)C3)cc1F [Example 553, 4-(((1R,3r,5S)-3-((3-chloro-5-(trifluoromethyl)pyridin-2-yl)oxy)-8-azabicyclo[3.2.1]octan-8-yl)methyl)-5-cyclopropyl-2-fluoro-N-(methylsulfonyl)benzamide, trifluoroacetic acid salt] |  | IC50 (read-out: Ligand Binding Assay, 100 pM [3H]compound, membranes with hNav1.7 and β1 subunit, 18 h, room temperature, trifluoroacetic acid salt): 6.1 nM

The next lines start with results.

IC50 [1] [nM] | SMILES | also measured
2.4 | CC[C@H](c1cc(Cl)cc(Cl)c1)N1CCC(COc2cc(F)c(C(=O)NS(C)(=O)=O)cc2C2CC2)CC1 [Example 240, (R)-5-cyclopropyl-4-((1-(1-(3,5-dichlorophenyl)propyl)piperidin-4-yl)methoxy)-2-fluoro-N-(methylsulfonyl)benzamide] | 
306 | CS(=O)(=O)NC(=O)c1cc(C2CC2)c(OCC2CN(C(c3ccccc3)c3ccccn3)C2)cc1F (stereo in doubt) [Example 119, (S)-5-Cyclopropyl-2-fluoro-N-(methylsulfonyl)-4-((1-(phenyl(pyridin-2-yl)methyl)azetidin-3-yl)methoxy)benzamide] | 
9.2 | COC[C@@H](c1ccc(Cl)c(Cl)c1)N1CCC(COc2cc(F)c(C(=O)NS(C)(=O)=O)cc2C2CC2)CC1 (single isomer, unassigned) [Example 264] | 
2.1 | O=C(NS(=O)(=O)C1CC1)c1cc(C2CC2)c(OCC2CCN(C(c3ccc(Cl)cc3)c3ccc(Cl)cc3)CC2)cc1F [Example 400, 4-((1-(bis(4-chlorophenyl)methyl)piperidin-4-yl)methoxy)-5-cyclopropyl-N-(cyclopropylsulfonyl)-2-fluorobenzamide, trifluoroacetic acid salt] | 
62.8 | CS(=O)(=O)NC(=O)c1cc(C2CC2)c(OCC2CCN(Cc3ccc(F)c(F)c3)CC2)cc1F [Example 160, 5-Cyclopropyl-4-((1-(3,4-difluorobenzyl)piperidin-4-yl)methoxy)-2-fluoro-N-(methylsulfonyl)benzamide] | 
93.8 | O=C(NS(=O)(=O)C1CC1)c1cc(C2CC2)c(O[C@@H]2CCCN(c3ccccn3)C2)cc1F [Example 492, (R)-5-cyclopropyl-N-(cyclopropylsulfonyl)-2-fluoro-4-((1-(pyridin-2-yl)piperidin-3-yl)oxy)benzamide] | 
5.8 | O=C(NS(=O)(=O)C1CC1)c1cc(C2CC2)c(OCC2CCN(C(c3ccc(F)cc3)c3ccc(F)cc3)CC2)cc1F [Example 363, 4-((1-(bis(4-fluorophenyl)methyl)piperidin-4-yl)methoxy)-5-cyclopropyl-N-(cyclopropylsulfonyl)-2-fluorobenzamide, trifluoroacetic acid salt] | 
6 | CC1(COc2cc(F)c(C(=O)NS(=O)(=O)C3CC3)cc2C2CC2)CN(C(c2ccccc2)c2ccccc2)C1 [Example 70, 4-((1-benzhydryl-3-methylazetidin-3-yl)methoxy)-5-cyclopropyl-N-(cyclopropylsulfonyl)-2-fluorobenzamide] | 
19.7 | O=C(NS(=O)(=O)C1CC1)c1cc(C2CC2)c(OCC2CCN(S(=O)(=O)c3ccc(C(F)(F)F)cc3)CC2)cc1F [Example 373, 5-cyclopropyl-N-(cyclopropylsulfonyl)-2-fluoro-4-((1-((4-(trifluoromethyl)phenyl)sulfonyl)piperidin-4-yl)methoxy)benzamide] | 
22.3 | CC(c1cc(F)cc(F)c1)N1CCC(COc2cc(F)c(C(=O)NS(C)(=O)=O)cc2C2CC2)CC1 (stereo not drawn) [Example 89, 5-Cyclopropyl-4-((1-(1-(3,5-difluorophenyl)ethyl)piperidin-4-yl)methoxy)-2-fluoro-N-(methylsulfonyl)benzamide] | 
150 | COc1ccc(CN2CCC(COc3cc(F)c(C(=O)NS(C)(=O)=O)cc3C3CC3)CC2)cc1F [Example 94, 5-Cyclopropyl-2-fluoro-4-((1-(3-fluoro-4-methoxybenzyl)piperidin-4-yl)methoxy)-N-(methylsulfonyl)benzamide] | 
19.1 | C[C@@H](c1ccc(F)cc1)N1CCC[C@@H](Oc2cc(F)c(C(=O)NS(C)(=O)=O)cc2C2CC2)C1 (single isomer, unassigned) [Example 315] | 
4.2 | C[C@@H](c1cc(Cl)cc(Cl)c1)N1CCC(COc2cc(F)c(C(=O)NS(=O)(=O)N3CCC3)cc2C2CC2)CC1 (single isomer, unassigned) [Example 272] | 
4 | COC[C@@H](c1ccc(Cl)cc1Cl)N1CCC(COc2cc(F)c(C(=O)NS(C)(=O)=O)cc2C2CC2)CC1 [Example 283, (R)-5-cyclopropyl-4-((1-(1-(2,4-dichlorophenyl)-2-methoxyethyl)piperidin-4-yl)methoxy)-2-fluoro-N-(methylsulfonyl)benzamide] | 
3.4 | C[C@H](c1ccc(Cl)cc1Cl)N1CCC(COc2cc(F)c(C(=O)NS(C)(=O)=O)cc2C2CC2)CC1 [Example 239, (R)-5-cyclopropyl-4-((1-(1-(2,4-dichlorophenyl)ethyl)piperidin-4-yl)methoxy)-2-fluoro-N-(methylsulfonyl)benzamide] | 

— patent US9546164B2 (GENENTECH, INC., priority 2013, dated 2017)
